“Also recorded” adds a separate entry of the source.
Tested on: wound healing
Test: Effect on wound healing (discovered in the context of the invention, no method given)
Format: in vivo
Details: present in a gel

CCOCCOCCO [ethoxydiglycol]
effect on wound healing: significantly slows wound healing; also recorded: significantly delays wound healing
